Measurements reported in patent US5753661A, “Fused benzo compounds containing a nitrogen heterocycle for the treatment of central nervous system disorders” (priority 1992, dated 1998).

Columns and labels:
[1] = molecular target: T1, 5-HT1A receptor (Rattus norvegicus, UniProt P19327); test: Inhibition of 5-MeO-DMT-induced 5-HT syndrome in rats; format: in vivo, rat (male Wistar); set-up: Male Wistar rats (Mol:Wist) weighing 170-240 g are used; from tissue; host or cells: living male Wistar rat (Mol:Wist) (in vivo, endogenous receptor); conditions: sc, 5-MeO-DMT 5 mg/kg s.c., inhibition of piano playing
T1 sequence (P19327 1-422): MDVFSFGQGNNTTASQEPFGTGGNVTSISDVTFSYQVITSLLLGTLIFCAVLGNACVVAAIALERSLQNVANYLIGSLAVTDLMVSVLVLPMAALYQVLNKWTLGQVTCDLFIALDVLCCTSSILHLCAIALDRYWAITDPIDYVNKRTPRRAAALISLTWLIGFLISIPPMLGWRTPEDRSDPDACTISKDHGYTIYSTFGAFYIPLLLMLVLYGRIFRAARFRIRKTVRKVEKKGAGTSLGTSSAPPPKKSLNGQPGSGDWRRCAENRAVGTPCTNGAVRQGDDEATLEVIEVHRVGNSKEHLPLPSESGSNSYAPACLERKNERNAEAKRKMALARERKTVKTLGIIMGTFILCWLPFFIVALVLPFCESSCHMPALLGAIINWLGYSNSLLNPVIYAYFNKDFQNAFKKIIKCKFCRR
Description: Inhibition of 5-MeO-DMT-Induced 5-HT Syndrome in Rats
The so-called 5-HT syndrome is a characteristic pattern of behaviours which are induced by 5-HT agonists with effects on 5-HT, possibly 5-HT1A receptors (Smith, L. M. and Peroutka, S. J., Pharmacol. Biochem. & Behaviour, 1986, 24, 1513; Tricklebank, M. et al, Eur. J. Pharmacol. 1985, 117, 15). This test is a test for determining the antagonist effects of a test compound on 5-HT1A receptors in vivo by measuring the ability to inhibit 5-MeO-DMT induced 5-HT syndrome.
Male Wistar rats (Mol:Wist) weighing 170-240 g are used. Test substance is injected s.c. before 5-MeO-DMT 5 mg/kg, s.c. Four rats are used for each dose. A control group pretreated with saline is included each test day. 10, 15 and 20 min later the rats are observed for presence of serotonin (5-HT) syndrome. The following symptoms are recorded: 1) forepaw treading ("piano playing"), 2) head weaving and 3) hindleg abduction. Furthermore, flat motility is scored. Each part of the syndrome is scored as follows: marked effect (score 2), weak syndrome (score 1) and no effect (score 0). The scores of the three observation periods are added. Thus the maximum obtainable score for four rats is 24. The effect of the test substance is expressed as percent inhibition relative to the control group.
The percent inhibition of the piano playing syndrome is used as the response and ED50 value are calculated by log-probit analysis.

[2] = molecular target: T1, 5-HT1A receptor; test: Antagonism of the discriminative stimulus properties induced by 8-OH-DPAT in rats (8-OH-DPAT cue); format: in vivo, rat (male Wistar); set-up: from tissue; host or cells: living male Wistar rat (in vivo, endogenous receptor); conditions: sc, before 8-OH-DPAT 0.4 mg/kg i.p.
Method: Antagonism of the Discriminative Stimulus Properties Induced by 8-OH-DPAT in Rats.
This test is used to determine the 5-HT1A receptor antagonistic effect of a test compound in vivo. A related method is described by Tricklebank, M. D., et al, Eur. J. Pharmacol, 1987, 133, 47-56; Amt, J. Pharmacology & Toxicology, 1989, 64, 165.
Male Wistar rats are trained to discriminate between 8-OH-DPAT (0.4 mg/kg, i.p., 15 min pretreatment) and physiological saline in operant chambers equipped with two response levers. Between the levers a dipper is placed, where water rewards (0.1 ml) are presented. The rats are water deprived for at least 24 h and work in a fixed ratio (FR) schedule (final FR=32).
Following 8-OH-DPAT administration, responding is reinforced only on a designated (drug) lever, whereas responding on the opposite lever has no consequences. Following saline administration, responding is reinforced on the lever opposite to the drug lever. Drug and saline trials alternate randomly between days. The level of discrimination accuracy is expressed as the per cent drug responses and is calculated as the number of correct responses ×100 divided by the sum of the correct and incorrect responses before the first reward. The time to the first reward is also recorded as a measure of reaction time. When stable accuracy (mean correct responding=90%; individual rats at least 75% correct responding) is obtained test sessions are included between training days. Test compound is injected s.c. or p.o. at appropriate time before 8-OH-DPAT and the test begins 15 min after 8-OH-DPAT injection. The test trial is terminated when a total of 32 responses are made on either lever or when 20 min have elapsed. No reward is given and the rats have free access to water for 20-30 min after the test. The effects are expressed as per cent inhibition of drug responding. Only results from rats making at least 10 responses on one lever are included in data analysis. Furthermore, only test sessions in which at least half of the rats respond are included.
The per cent inhibition of drug response obtained for each dose of test compound is used to calculate ED50 values by log-probit analysis.

[3] = molecular target: T1, 5-HT1A receptor; test: Inhibition of 3H-8-OH-DPAT binding to serotonin 5-HT1A receptors in rat brain in vitro; set-up: 5-HT1A receptors in membranes from rat brain minus cerebellum; from tissue; host or cells: rat brain minus cerebellum, membranes; conditions: 3H-8-OH-DPAT 1 nM; membranes from rat brain minus cerebellum; read-out: IC50, 3H 8-OH-DPAT binding
Method: Inhibition of ^3 H-8-OH-DPAT Binding to Serotonin 5-HT1A Receptors in Rat Brain in vitro.
By this method the inhibition by drugs of the binding of the 5-HT1A agonist 3H-8-OH-DPAT (1 nM) to 5-HT1A receptors in membranes from rat brain minus cerebellum is determined in vitro . Accordingly, this is a test for affinity for the 5-HT1A receptor. The assay was performed as described by Hyttel et al., Drug Dev. Res. 1988, 15, 389-404.

[4] = molecular target: T1, 5-HT1A receptor; test: Generalization to the discriminative stimulus properties induced by 8-OH-DPAT in rats (8-OH-DPAT cue, agonism); format: in vivo, rat (male Wistar); set-up: from tissue; host or cells: living male Wistar rat (in vivo, endogenous receptor); conditions: for ED50: rat, sc, usually 30 or 45 min before test; for agonist activity/efficacy in words, 8-OH-DPAT cue: 8-OH-DPAT cue model, s.c.
Description: Generalization to the Discriminative Stimulus Properties Induced by 8-OH-DPAT in Rats
This test is used to determine the 5-HT1A receptor agonistic effect of a test compound in vivo. A related method is described by Tricklebank, M. D., supra; Amt, J. Pharmacology & Toxicology, 1989, 64, 165.
The per cent drug responce obtained for each dose of test compound is used to calculate ED50 values by log-probit analysis.

[5] = system: 5-HT1A; conditions: cited from earlier work

Row | Compound | ED50 [1] [µmol/kg] | ED50 [2] [µmol/kg] | IC50 [3] [nM] | ED50 [4] [µmol/kg] | agonist activity/efficacy in words, 8-OH-DPAT cue [4] | response, 8-OH-DPAT cue agonism ([4]; at 0.04-10 μmol/kg, s.c. (note a)) | response, 8-OH-DPAT cue agonism ([4]; at 0.6-2.4 μmol/kg, s.c. (note c)) | response, 8-OH-DPAT cue agonism ([4]; at 0.08-19 μmol/kg, s.c. (note b)) | 5-HT1A agonist activity, in words [5] | antidepressant and anxiolytic effects, in words ([5]; Schipper et al, Human Psychopharm., 1991)
1 | CC(C)S(=O)(=O)CCCN1CCN(c2cccc3c2OCCO3)CC1 [Compound 1e, 1-(1,4-Benzodioxan-5-yl)-4-(3-isopropylsulfonyl-1-propyl)piperazine] | 5.1 | > 10 | 23 |  | partial agonist | 30-75% |  |  |  | 
2 | O=S(=O)(CCCN1CCN(c2cccc3c2OCCO3)CC1)C1CCCCC1 [Compound 1a, 1-(1,4-Benzodioxan-5-yl)-4-(3-cyclohexylsulfonyl-1-propyl)piperazine] | 2.3 | > 0.62 | 2.6 | 0.034 |  |  |  |  |  | 
3 | O=C1CC2(CCCC2)CC(=O)N1CCCCN1CCN(c2ncccn2)CC1 [Buspirone, 8-[4-[4-(2-pyrimidyl)-1-piperazinyl]butyl]-8-azaspiro[4,5]decane-7,9-dione] |  |  |  |  |  |  |  |  | 5-HT1A partial agonists | 
4 | O=C(NCCN1CCN(c2cccc3c2OCC(CO)O3)CC1)c1ccc(F)cc1 (centres unmarked) [Flesinoxane, 4-fluoro-N-[2-(4-(2-hydroxymethyl-1,4-benzodioxan-5-yl)piperazine-1-yl)ethyl]benzamide, reference compound] | > 44 |  | 4 | 0.38 |  |  |  |  | high efficacy 5-HT1A agonist | antidepressant and anxiolytic effects

Second part, led by results:

Row | ED50 [1] [µmol/kg] | ED50 [2] [µmol/kg] | IC50 [3] [nM] | ED50 [4] [µmol/kg] | agonist activity/efficacy in words, 8-OH-DPAT cue [4] | response, 8-OH-DPAT cue agonism ([4]; at 0.04-10 μmol/kg, s.c. (note a)) | response, 8-OH-DPAT cue agonism ([4]; at 0.6-2.4 μmol/kg, s.c. (note c)) | response, 8-OH-DPAT cue agonism ([4]; at 0.08-19 μmol/kg, s.c. (note b)) | Compound | 5-HT1A agonist activity, in words [5] | antidepressant and anxiolytic effects, in words ([5]; Schipper et al, Human Psychopharm., 1991)
5 | 2.7 | 1.9 | 28 |  |  |  |  |  | O=C1N(CCN2CCN(c3cccc4[nH]ccc34)CC2)CCN1C1CCCC1 [Compound 2y, 1-Cyclopentyl-3-[2-[4-(4-indolyl)-1-piperazinyl]ethyl]-2-imidazolidinone] |  | 
6 | 10 | > 11 | 37 | 1.6 |  |  |  |  | O=C1N(CCCN2CCN(c3cccc4c3OCC4)CC2)CCN1c1ccccc1 [Compound 2g, 1-[3-[4-(2,3-Dihydrobenzofuran-7-yl)-1-piperazinyl]-1-propyl]-3-phenyl-2-imidazolidinone] |  | 
7 | 6.6 | > 11 | 16 | 3.1 |  |  |  |  | O=C1N(CCCN2CCN(c3cccc4c3OCCO4)CC2)CCN1c1ccccc1 [Compound 2a, 1-[3-[4-(1,4-Benzodioxan-5-yl)-1-piperazinyl]-1-propyl]-3-phenyl-2-imidazolidinone] |  | 
8 | 15 | > 2.6 | 13 | 0.76 |  |  |  |  | O=C1N(CCN2CCN(c3cccc4c3OCCO4)CC2)CCN1c1ccccc1 [Compound 2c, 1-[2-[4-(1,4-Benzodioxan-5-yl)-1-piperazinyl]ethyl]-3-phenyl-2-imidazolidinone] |  | 
9 | 4.7 | 6.1 | 0.45 |  | partial agonist |  | 20-60% |  | O=C1N(CCCCN2CCN(c3cccc4c3OCCO4)CC2)CCN1C1CCCCC1 [Compound 2e, 1-[4-[4-(1,4-Benzodioxan-5-yl)-1-piperazinyl]-1-butyl]-3-cyclohexyl-2-imidazolidione] |  | 
10 | 8.9 | 2.7 | 18 | > 11 |  |  |  |  | O=C1N(CCN2CCN(c3cccc4c3OCCO4)CC2)CCN1C1CCCC1 [Compound 2b, 1-[2-[4-(1,4-Benzodioxan-5-yl)-1-piperazinyl]ethyl]-3-cyclopentyl-2-imidazolidinone] |  | 
11 | 10 | 6.3 |  |  | partial agonist |  |  | 30-50% | O=C1N(CCN2CCN(c3cccc4c3OCCO4)CC2)CCN1C1CCCCC1 [Compound 2d, 1-[2-[4-(1,4-Benzodioxan-5-yl)-1-piperazinyl]ethyl]-3-cyclohexyl-2-imidazolidinone] |  | 
12 | 9 | 23 | 51 | 27 |  |  |  |  | CC(C)N1CCN(CCN2CCN(c3cccc4c3OCCO4)CC2)C1=O [Compound 2o, 1-[2-[4-(1,4-Benzodioxan-5-yl)-1-piperazinyl]ethyl]-3-isopropyl-2-imidazolidinone] |  | 
